Measured values from patent publication US10835500B2, “Medicament for accelerated wound healing” (Symrise AG, priority 2014, dated 2020).

Assays:
Assay type in all cases: cell-based, human
HaCaT cells = assay: Agarose migration assay with HaCaT cells; conditions: 500 μM versus 0.1% DMSO, five days
Description: For this reason, an agarose migration assay was conducted in order to determine whether the increased cell growth is accompanied by increased chemotactic behavior.
Effect of Sandalore® long-term stimulation on morphology, growth, and migration processes in keratinocytes. A) Phase contrast image and PI stains of HaCaT cells and primary keratinocytes after stimulation with Sandalore® (500 μM) or 0.1% DMSO (control) for five days. On positive PI staining, the cell nuclei are stained red. Scale: 100 μm. B) Evaluation of the proliferation assay carried out with the CyQuant Cell Proliferation Kit on HaCaT cells after 5-day stimulation with 500 μM of Sandalore® or 0.1% DMSO (control). For the RNA interference experiments, the cells were transfected with siRNA or scRNA on the day before Sandalore® stimulation. Shown is the mean cell count including standard error relative to untreated cells. Mann-Whitney U test; n=3 experiments. *: p<0.05; **: p<0.01. S: Sandalore. C) Agarose assay for determination of migration of HaCaT cells. Top: Transmitted light images of HaCaT cells that have migrated in the direction of Sandalore® (500 μM) or 0.1% DMSO. The growth margin of the cells was surrounded in black. Scale: 250 μm. Bottom: Evaluation of the proliferation assay. The longest path traversed by the cells and the overgrown area were measured and compared to the control (0.1% DMSO). Paired two-sided T test. […]

ERK1/2 MAPK = assay: Western Blot, phosphorylation of ERK1/2 MAPK in HaCaT cells; conditions: 500 μM
Description: (§1) In the following, an investigation was to be conducted to determine whether a MAPK signalling pathway is activated by Sandalore® stimulation in skin cells, and if so, which pathway is involved. For detection, HaCaT cells were stimulated for 0-30 min with 500 μM of Sandalore®, and the proteins were then isolated and used in Western Blot assays.
In order to reveal a possible interaction of the two MAPK signalling pathways, ERK1/2 phosphorylation in the presence of the p38 MAPK inhibitor SB203580 and p38 MAPK phosphorylation in the presence of the ERK1/2 MAPK inhibitor U0126 were investigated. Phosphorylation was increased for both kinases in the presence of the respective inhibitors compared to the cells stimulated with Sandalore® only. This effect was significant for p38 MAPK (FIG. 17c).
(§2) Effect of Sandalore® stimulation on phosphorylation of MAP kinases in skin cells. A) Western Blot for investigating the phosphorylation of the MAP kinases in HaCaT cells stimulated for 0, 5, 15 and 30 min with Sandalore®(500 μM). In order to confirm uniform protein volume, ▪-tubulin was used as a control. ERK1/2: 42/44 kDa; p38: 43 kDa; JNK/SAPK: 46/54 kDA; ▪-tubulin: 52 kDa. B) Quantitative evaluation of p38 and ERK1/2 phosphorylation of HaCaT cells stimulated for 30 min with Sandalore®(500 μM) or additionally with the p38 inhibitor 5B203580 (10 μM) or ERK1/2 inhibitor U0126 (10 μM). For evaluation, the ratio of the phosphorylated (p) and unphosphorylated proteins was established and compared to that of untreated cells. Mean values including standard error. Mann-Whitney U test. *: p<0.05; ***: p<0.001. In C), the inhibitors of the respective other MAP kinase were used, and phosphorylation was compared to the cells stimulated with Sandalore® (500 μM) alone. Mean values including standard error. Mann-Whitney U test. *: p<0.05. The Western Blot analyses were carried out with three different protein isolations.

p38 MAPK = assay: Western Blot, phosphorylation of p38 MAPK in HaCaT cells; conditions: 500 μM
Description: as §1
In order to reveal a possible interaction of the two MAPK signalling pathways, ERK1/2 phosphorylation in the presence of the p38 MAPK inhibitor SB203580 and p38 MAPK phosphorylation in the presence of the ERK1/2 MAPK inhibitor U0126 were investigated.
as §2, with “A)” for “Effect of Sandalore® stimulation on phosphorylation of MAP kinases in skin cells. A)”, “In order to confirm uniform protein volume, ▪-tubulin was used as a control.” left out

IL-1α = assay: Quantitative real-time PCR of IL-1α in HaCaT cells
Description: In order to investigate interleukin secretion, quantitative real-time PCR was first carried out. For this purpose, RNA from HaCaT cells was used that had previously been stimulated for 6 or 24 hours with Sandalore®. Detection was carried out with specific primers of various interleukins (IL-1α, IL-1β, IL-6, IL-8) and tumor necrosis factor (TNF▪). […] In order to corroborate the results, an ELISA assay was carried out, in which the secreted interleukins in the supernatant of the cells can be detected by means of an immunological reaction. By means of the assay used, secretion of the interleukins (IL-1α, IL-1β, IL-2, IL-4, IL-6, IL-8, IL-10, IL-12, and IL-17α), TNFα, γ-interferon (IFNγ), and granulocyte macrophage colony-stimulating factor (GMCSF) was investigated.
Investigation of interleukin secretion and phosphorylation of Akt protein kinase after Sandalore® stimulation. A) Investigation of the regulation of interleukins in HaCaT cells by means of qRT-PCR after stimulation with Sandalore® (500 μM) for 6 h and 24 h. 0.1% DMSO was used as a control. GAPDH was used as a reference gene, and the relative expression between untreated and stimulated cells was determined. Mean values including standard error. n=3 experiments. […] The measured optical density of the treated cells at 450 nm was expressed relative to the background. […]

Q: For `CC1=CCC(CCC(C)C(C)O)C1(C)C` (stereo not shown) [Sandalore®], which “chemotactic migration of the HaCaT cells” value (HaCaT cells) is on record?
A: significant chemotactic migration

Q: And the “phosphorylation of ERK1/2 MAPK, quantification” value (ERK1/2 MAPK; 30-minute stimulation)?
A: significant increase

Q: What about the “phosphorylation of ERK1/2 MAPK” value (ERK1/2 MAPK; within 5-30 min) of the same compound?
A: increased phosphorylation

Q: What about the “phosphorylation of p38 MAPK, quantification” value (p38 MAPK; 30-minute stimulation) of the same compound?
A: significant increase

Q: And the “phosphorylation of p38 MAPK” value (p38 MAPK; within 5-30 min)?
A: increased phosphorylation

Q: And the “increase of expression of IL-1α relative to the control (0.1% DMSO)” value (IL-1α; after 24 hours, 500 μM)?
A: approx. 10,000%

Q: What about the “expression of IL-1α” value (IL-1α; summary statement) of the same compound?
A: increased
